Active and inactive are the calls of the source. The calls are words filed in the database; no cut-off is given here. Where a SMILES comes first, the peptide text is derived from it. [ ]: non-standard residue; d: D form. αMeP = C[C@@]1(C(=O)O)CCCN1
Assays:
SH-SY5Y [1] = test: Neuroprotective against IFNgamma/LPS stimulated THP1 condition medium-induced neurotoxicity in human SH-SY5Y cells assessed as increase in cytoplasmic IkappaBalpha level pretreated for 1 hr followed by addition of THP1 conditioned medium by western blot analysis; format: functional, cell-based
SH-SY5Y [2] = test: Neuroprotective against IFNgamma/LPS stimulated THP1 condition medium-induced neurotoxicity in human SH-SY5Y cells assessed as NO production per 10^6 cells at 10 nM for 1 hr followed by addition of THP1 conditioned medium by griess assay (reference value: 3.75 +/- 0.14 micromol/L); format: functional
SH-SY5Y [3] = test: Neuroprotective against IFNgamma/LPS stimulated THP1 condition medium-induced neurotoxicity in human SH-SY5Y cells assessed as NO production per 10^6 cells at 100 nM for 1 hr followed by addition of THP1 conditioned medium by griess assay (reference value: 3.75 +/- 0.14 micromol/L); format: functional
SH-SY5Y [4] = test: Neuroprotective against IFNgamma/LPS stimulated THP1 condition medium-induced neurotoxicity in human SH-SY5Y cells assessed as NO production per 10^6 cells at 10 uM for 1 hr followed by addition of THP1 conditioned medium by griess assay (reference value: 3.75 +/- 0.14 micromol/L); format: functional
[5] = Metabolic stability in human plasma assessed as half life by HPLC analysis; format: ADME, cell-free
SH-SY5Y [6] = test: Neuroprotective against IFNgamma/LPS stimulated THP1 condition medium-induced neurotoxicity in human SH-SY5Y cells assessed as NO production per 10^6 cells at 100 uM for 1 hr followed by addition of THP1 conditioned medium by griess assay (reference value: 3.75 +/- 0.14 micromol/L); format: functional
SH-SY5Y [7] = test: Neuroprotective against IFNgamma/LPS stimulated THP1 condition medium-induced neurotoxicity in human SH-SY5Y cells assessed as NO production per 10^6 cells at 1 uM for 1 hr followed by addition of THP1 conditioned medium by griess assay (reference value: 3.75 +/- 0.14 micromol/L); format: functional
SH-SY5Y [8] = test: Neuroprotective activity against human SH-SY5Y cells assessed as inhibition of IFNgamma/LPS stimulated THP1 condition medium-induced cytotoxicity measured as cell viability at 100 uM for 1 hr followed by addition of THP1 conditioned medium for 24 hrs by LDH assay in presence of 1 uM dexamethasone; format: functional, cell-based
SH-SY5Y [9] = test: Neuroprotective activity against human SH-SY5Y cells assessed as inhibition of IFNgamma/LPS stimulated THP1 condition medium-induced cytotoxicity measured as cell viability at 100 uM for 1 hr followed by addition of THP1 conditioned medium for 24 hrs by LDH assay relative to control; format: functional
SH-SY5Y [10] = test: Neuroprotective against IFNgamma/LPS stimulated THP1 condition medium-induced neurotoxicity in human SH-SY5Y cells assessed as decrease in iNOS expression at 100 uM pretreated for 1 hr followed by addition of THP1 conditioned medium by western blot analysis; format: functional, cell-based
SH-SY5Y [11] = test: Neuroprotective against IFNgamma/LPS stimulated THP1 condition medium-induced neurotoxicity in human SH-SY5Y cells assessed as decrease in apoptosis at 100 uM for 1 hr followed by addition of THP1 conditioned medium by annexinV/PI staining based flow cytometry; format: functional, cell-based
SH-SY5Y [12] = test: Neuroprotective against IFNgamma/LPS stimulated THP1 condition medium-induced neurotoxicity in human SH-SY5Y cells assessed as reduced iNOS activity at 100 uM pretreated for 1 hr followed by addition of THP1 conditioned medium; format: functional, cell-based
SH-SY5Y [13] = test: Effect on NO production in human SH-SY5Y cells by greiss assay; format: functional, cell-based
SH-SY5Y [14] = test: Neuroprotective against IFNgamma/LPS stimulated THP1 condition medium-induced neurotoxicity in human SH-SY5Y cells assessed as increase in nNOS expression at 100 uM pretreated for 1 hr followed by addition of THP1 conditioned medium by western blot analysis; format: functional, cell-based
SH-SY5Y [15] = test: Cytotoxicity against human SH-SY5Y cells at 0.1 to 100 uM after 24 hrs by MTT assay; format: cell-based
SH-SY5Y [16] = test: Neuroprotective against IFNgamma/LPS stimulated THP1 condition medium-induced neurotoxicity in human SH-SY5Y cells assessed as inhibition of RelA/p65 nuclear translocation at 100 uM pretreated for 1 hr followed by addition of THP1 conditioned medium by western blot analysis; format: functional, cell-based
SH-SY5Y [17] = test: Neuroprotective against IFNgamma/LPS stimulated THP1 condition medium-induced neurotoxicity in human SH-SY5Y cells assessed as increase in nNOS activity at 100 uM pretreated for 1 hr followed by addition of THP1 conditioned medium; format: functional, cell-based
SH-SY5Y [18] = test: Neuroprotective against IFNgamma/LPS stimulated THP1 condition medium-induced neurotoxicity in human SH-SY5Y cells assessed as increase in cytoplasmic IkappaBalpha level at 100 uM pretreated for 1 hr followed by addition of THP1 conditioned medium by western blot analysis; format: functional, cell-based

Compound	Activity (SH-SY5Y [1])	Activity (SH-SY5Y [2])	Activity (SH-SY5Y [3])	Activity (SH-SY5Y [4])	half-life [5]	Activity (SH-SY5Y [6])	Activity (SH-SY5Y [7])	Activity (SH-SY5Y [8])	Activity (SH-SY5Y [9])	inhibition (SH-SY5Y [10])	inhibition (SH-SY5Y [11])	inhibition (SH-SY5Y [12])	Activity (SH-SY5Y [13])	Activity (SH-SY5Y [14])	Activity (SH-SY5Y [15])	inhibition (SH-SY5Y [16])	Activity (SH-SY5Y [17])	Activity (SH-SY5Y [18])
CN1C(=O)[C@]23CC4=CC=C[C@H](O)[C@H]4N2C(=O)[C@@]1(CO)SS3	Active																	
N=C(N)NCCC[C@H](NC(=O)[C@@H]1CCCN1C(=O)CN)C(=O)O (H-Gly-Pro-Arg-OH)		3.72 µmol/L	3.74 µmol/L	3.05 µmol/L	1.58 h	2.64 µmol/L	3.68 µmol/L											
C[C@@]1(C(=O)N[C@@H](CCCNC(=N)N)C(=O)O)CCCN1C(=O)CN (H-Gly-[αMeP]-Arg-OH)		3.78 µmol/L	3.71 µmol/L	3.57 µmol/L	132 h	2.92 µmol/L	3.72 µmol/L	Active	70%	Active	Active	Active	inactive	Active	Non-toxic			
C[C@@]1(C(=O)N[C@@H](Cc2cnc[nH]2)C(=O)O)CCCN1C(=O)CN (H-Gly-[αMeP]-His-OH)		3.81 µmol/L	3.76 µmol/L	2.96 µmol/L	118 h	2.38 µmol/L	3.74 µmol/L	Active	70%	Active	Active	Active	inactive	Active	Non-toxic	Active	Active	Active
C[C@@]1(C(=O)N[C@@H](CCCCN)C(=O)O)CCCN1C(=O)CN (H-Gly-[αMeP]-Lys-OH)		3.7 µmol/L	3.68 µmol/L	2.98 µmol/L	51.6 h	2.65 µmol/L	3.74 µmol/L	Active	70%	Active	Active	Active	inactive	Active	Non-toxic			

— ChEMBL document CHEMBL3751843, “Development of glycine-α-methyl-proline-containing tripeptides with neuroprotective properties” (Eur J Med Chem, 2016)
